Each structure is given as a SMILES string.

This series is described as follows: gradient 5% acetonitrile 3 min, to 50% in 2 min, to 85% in 15 min, held 3 min, 100 µL/min. The note with it: column: Zorbax Extend-C18 2.1 x 50 mm; eluents: water / acetonitrile, 0.1% formic acid. In short, it runs like this: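 In both positive and negative ionization mode, a quadrupole time-of-flight mass spectrometer coupled to HPLC analyzed pure standards run in mixtures of ~100 molecules. The Zorbax Extend-C18 column (2.1 × 50 mm, 1.8 μm) was operated at 100 μL/min with water and acetonitrile, each containing 0.1% formic acid. The dead volume was 40 μL and the dwell volume 900 μL. Retention time came from adduct peaks that were computationally picked and individually inspected by hand.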
On to `O=C(NCc1nnc(SC/C=C/c2ccccc2)o1)c1ccccc1`, for which the RP-LC retention time turned out to be 824 s. Next, `COc1cc([C@H]2Oc3cc([C@H]4Oc5cc(O)cc(O)c5C(=O)[C@@H]4O)ccc3O[C@@H]2CO)ccc1O`: 685 s; `Cc1ccc(-c2nc(Nc3ccc(Cl)cc3Cl)sc2CC(=O)O)cc1`: 1180 s; `O=C(Cn1nc(Cc2cccnc2)c2ccccc2c1=O)Nc1ccc(Cl)cn1`: 608 s. The compound `COc1ccc(-c2csc(NC(=O)Cn3c(=O)oc4ccccc43)n2)cc1OC` gave an RP-LC retention time of 828 s. The result for `Cc1ccc(NC(=O)N2CCCC2c2nc(-c3ccc(F)cc3F)no2)cc1C` (centres undefined) reads 1050 s; that for `Cc1ccc(Nc2c(-c3ccc(N4CCOCC4)cc3)nc3ncccn23)cc1C`, 716 s. The result for `COc1ccc(NC(=O)Cn2cnc(-c3nc(C)cs3)c2)cc1Cl` reads 699 s. `CCOC(=O)N1CCN(S(=O)(=O)c2cn(C)nc2C)CC1` showed an RP-LC retention time of 644 s.

Regarding `CCn1c(=O)c(=O)n(CC(=O)NC(C)Cc2ccco2)c2cccnc21` (centres undefined), the RP-LC retention time was found to be 711 s. The result for `CN(C)c1ccc(CNC(=O)C2CCN(S(=O)(=O)c3ccc4[nH]c(=O)ccc4c3)CC2)cc1` reads 580 s; that for `CCNC(=O)C1CCN(S(=O)(=O)c2cc(C(=O)N(C)C)cs2)CC1`, 624 s.

As for `CC1CCCC(NC(=O)C2CCCN(C(=O)c3cc4sccc4n3C)C2)C1C` (centres undefined), the RP-LC retention time was 991 s.

Take `O=C(Cn1ccc2ccccc21)N1CCN(S(=O)(=O)C2CC2)CC1`: the RP-LC retention time was determined as 563 s. In turn, `Cc1nn(CC(=O)NC2CCCCCC2)c(=O)c2nc(-c3ccccc3)sc12` gave an RP-LC retention time of 930 s.

As for `O=C(c1nnn(-c2ccccc2Cl)c1-c1ccncc1)N1CCCC1`, the RP-LC retention time is 716 s.

In the case of `COc1ccc(Cl)cc1NC(=O)c1[nH]c(C)c(S(=O)(=O)N2CCCC2)c1C`, the RP-LC retention time worked out at 1040 s.

For the compound `O=S(=O)(Cc1ccccc1)N1CCC[C@H]1c1nc(-c2ccc(F)cc2)n[nH]1`, the RP-LC retention time was 819 s. The compound `Cc1cc(N2CCN(C)CC2)nc2ccc(NC(=O)Nc3ccc(Br)cc3)cc12` returned an RP-LC retention time of 609 s. The compound `Cc1csc(NC(=O)Cc2cc(-c3cccs3)on2)n1` gave an RP-LC retention time of 763 s. Next, `CC(C)CCNC(=O)c1ccc2c(=O)n(-c3ccc(F)cc3)c(N3CCCC3)nc2c1`: 912 s. Next, `CCn1cc(C)c(C(=O)O)c1CC(=O)NCCCN1CCOCC1`: 588 s.

In turn, `COC(=O)c1ccc(-c2nc3cnccn3c2Nc2ccc(C)cc2C)cc1` displayed an RP-LC retention time of 1010 s. The result for `CCOC(=O)c1c(C)c(C(=O)C(C)N(CC)C(=O)c2ccc(Cl)cc2)c(C)n1C` (centres undefined) reads 876 s; that for `O=C(Nc1ccc(SCc2nnc(-c3ccccc3)o2)cc1)c1cccs1`, 968 s. Next, `O=C(Nc1ccc(F)c(F)c1)c1c(O)c2cccnc2n(-c2ccccc2)c1=O`: 916 s; `COC(=O)C[C@@](O)(CCC(C)(C)O)C(=O)O[C@@H]1C(OC)=C[C@]23CCCN2CCc2cc4c(cc2[C@@H]13)OCO4`: 612 s. `Cc1nc(-c2ccc3c(c2)CCN3C(=O)Cc2cccc(F)c2)cs1` showed an RP-LC retention time of 991 s. In turn, `Clc1nnc2c3ccccc3ccn12` showed an RP-LC retention time of 747 s.

In turn, `CCc1noc(-c2cnc3nc(C)ccc3c2NC(C)c2ccc(F)cc2)n1` (centres undefined) yielded an RP-LC retention time of 798 s.

Turning to `c1ccc(-c2nc(CC3CCCNC3)no2)cc1` (centres undefined), the RP-LC retention time was found to be 609 s. Consider `Cc1ccc2c(c1)N(S(C)(=O)=O)CCC(C(=O)Nc1ccccc1F)O2` (centres undefined), for which the RP-LC retention time came to 918 s. `Cc1cc(C)n(CCN2CCN(C(=O)Cc3cccs3)CC2)n1` returned an RP-LC retention time of 548 s.

Compound `CCN(CC)CCCNC(=O)C1c2ccccc2C(=O)N(C)C1c1cccs1` (centres undefined) displayed an RP-LC retention time of 602 s. Next, `COc1ccc(N2C(=O)CC(N3CCC(C)CC3)C2=O)cc1` (centres undefined): 579 s. The compound `CCNC(=O)c1nc2cc(C)c(C)cc2n(CC)c1=O` had an RP-LC retention time of 745 s. The result for `CC1=C(c2ccc(F)cc2)S(=O)(=O)N=C1N1CCCN(C(=O)NCC(C)C)CC1` reads 793 s; that for `Cc1cc2nn(CC(=O)N(C)c3ccccc3)c(=O)n2c(Nc2ccc(C)c(C)c2)n1`, 1100 s; that for `COc1cc(-c2nc3ccc(Cl)cn3c2Nc2ccc(C)cc2)ccc1O`, 730 s. The result for `CCOC(=O)C1CCCN(S(=O)(=O)c2cc(-c3nc(C)c(C)s3)sc2C)C1` (centres undefined) reads 1170 s; that for `Cc1cc(C(=O)Nc2ccc(Cl)cn2)c2ccccc2n1`, 694 s. Next, `Cc1cc(N2CCN(C)CC2)nc(N2CCN(C(=O)c3ccc(C(C)(C)C)cc3)CC2)n1`: 586 s; `Cc1ccc(C)c(Cn2nnc(C(=O)O)c2-c2ccccn2)c1`: 752 s.

In turn, `O=C(C1=CN(c2ccc3c(c2)OCO3)c2cc(Cl)ccc2S1(=O)=O)N1CCCC1` had an RP-LC retention time of 847 s. The result for `COc1cccc(CNC(=O)Nc2ccc(-c3nc(-c4cc(C)ccc4C)co3)cc2)c1` reads 1180 s; that for `Cc1cc(C)c(C#N)c(SCC(=O)Nc2nccs2)n1`, 750 s.

For `Cc1cc(C)cc(NC(=O)N2CCC(n3cnc4c(Cl)cccc4c3=O)CC2)c1`, the RP-LC retention time is 892 s. With `Cc1c(Cl)cccc1NC(=O)C(=O)NC1CCCC1`, the RP-LC retention time is 964 s. The result for `CCN(CC)c1nc2cc(C(=O)OC)ccc2c(=O)n1-c1ccc(C)c(C)c1` reads 1270 s; that for `O=C(Cn1nc(C(=O)N2CCOCC2)c2ccccc21)N1CCN(c2ccccn2)CC1`, 594 s. Take `O=c1ccc(N2CCC(NS(=O)(=O)c3ccccc3C(F)(F)F)C2)n[nH]1` (centres undefined): the RP-LC retention time amounted to 687 s. The compound `CC(C)C(=O)N1CCc2c(c(C(=O)N3CCC(C(=O)N4CCC5(CC4)OCCO5)CC3)nn2C)C1` yielded an RP-LC retention time of 626 s. `COc1ccc(CNC(=O)c2cc3c(=O)n(C)c4ccccc4n3n2)c(OC)c1` gave an RP-LC retention time of 784 s. Next, `c1csc(-c2nc(-c3ccc4c(c3)ncn4CCN3CCCCC3)no2)c1`: 626 s.

In turn, `CCN1C(=O)c2cc(C(=O)Nc3ccc(C)cc3)nn2CC1(C)C(=O)NC1CCCC1` (centres undefined) came in with an RP-LC retention time of 807 s. The result for `CC(C)CC(=O)Nc1ccc(-c2nc(-c3ccc(Cl)cc3)no2)cc1` reads 1310 s; that for `O=C(c1ccc(CN2C(=O)CCn3nc(-c4ccccc4)cc32)cc1)N1CCN(c2ccccn2)CC1`, 638 s. In turn, `CCc1nc(N2CCCC2=O)sc1C(=O)NCc1ccccc1Cl` had an RP-LC retention time of 874 s. `Cc1ccc(N2C(=O)CN(S(=O)(=O)c3ccc(C)cc3)CC2(C)C(=O)NC2CCCC2)cc1` (centres undefined) yielded an RP-LC retention time of 983 s. The result for `O=C(NCc1ccccc1F)c1ccc2c(c1)CN(Cc1cccs1)CCO2` reads 759 s; that for `O=C(Nc1cccc(Cl)c1)c1nnc(CCCC(=O)N2CCN(c3ccccn3)CC2)s1`, 669 s; that for `O=C(CCCSc1ccc(NC(=O)c2ccc(F)cc2)nn1)NCc1cccs1`, 802 s.

For the compound `Cc1ccc(-n2ccc(=O)c(-c3nc(-c4ccc5c(c4)OCO5)no3)n2)cc1`, the RP-LC retention time is 893 s.

With `Cc1nc(-c2ccccc2)cc2nn(CC(=O)Nc3ccccc3Br)c(=O)n12`, the RP-LC retention time is 995 s.

Consider `Cn1cc(-c2cc3n(n2)CCC(=O)N3CC(=O)NC2CCCc3ccccc32)c2ccccc21` (centres undefined), for which the RP-LC retention time was found to be 882 s.

With `Cc1ccccc1Nc1c(-c2ccccn2)nc2cnccn12`, the RP-LC retention time came to 941 s. Next, `CCCn1cnnc1C1CCCCN1S(=O)(=O)c1cccnc1` (centres undefined): 580 s; `Cc1ccc(Cl)cc1N1CCN(C(=O)c2[nH]c(C)c(S(=O)(=O)N3CCOCC3)c2C)CC1`: 984 s; `Cc1cc(=O)n(CC(=O)Nc2ccc(F)cc2F)c(N2CCCCC2)n1`: 672 s. Compound `Cc1ccc(-c2nc(-c3cccc(-c4ccnn4C)c3)no2)cc1C` gave an RP-LC retention time of 1300 s.

On to `CCc1ccc(-c2noc(CSc3nc4cc5c(cc4c(=O)n3Cc3ccncc3)OCO5)n2)cc1`, for which the RP-LC retention time worked out at 909 s. As for `Cc1cc2[nH]c(C(=O)NC(C)c3ccccc3)c(CN3CCOCC3)c2s1` (centres undefined), the RP-LC retention time worked out at 688 s. The result for `O=C(CCc1ccccc1)N1CCN(c2nc(CN3CCOCC3)cs2)CC1` reads 624 s; that for `COc1ccc(C(=O)N2CCc3ccc(C(=O)NCc4ccco4)cc32)cc1`, 795 s. Next, `CCOc1ccc(-n2nnnc2CNC(=O)Nc2cccs2)cc1`: 722 s; `CN(C)c1cc(C(=O)NC2CC2)c2cccc(Cl)c2n1`: 746 s; `O=C(CC1CCCCC1)N1CCN(c2ccc(=O)n(-c3ccc(F)cc3)n2)CC1`: 901 s. The result for `CN(C)C(=O)c1ccc2c(c1)N(CC(=O)N1CCN(C(=O)c3ccco3)CC1)C(=O)C1CCCCN21` (centres undefined) reads 667 s; that for `CC(=O)N1CCc2cc(N3CC(C(=O)NCc4cccc(Cl)c4)CC3=O)ccc21` (centres undefined), 702 s.

Values taken from the METLIN SMRT retention time set (Domingo-Almenara et al. 2019).
